Values of other authors, collected in patent US8748481B2, “Method for treating gastrointestinal disorder” (Sucampo AG, priority 2004, dated 2014).
Where a name gives a salt, the structure may show the parent alone.

Test system: patients with IBS with constipation / chronic idiopathic constipation
Conditions: cited from earlier work

[H]/N=C(/NCCCCC)N/N=C/c1c[nH]c2ccc(OC)cc12 [Zelnorm®, tegaserod maleate]
Return of symptoms after stopping (after patients stop taking the drug): may return within 1 or 2 weeks | Treatment effect over placebo in patients aged 65 years and older (subgroup analyses): no significant treatment effect | Response rates vs. placebo in males (two randomized, placebo-controlled, double-blind studies enrolling 288 males): no significant differences
